Laboratory results from patent publication US20040022788A1, “Compositions and methods for promoting or inhibiting angiogenesis” (priority 1998, published 2004).

What was measured:
HUVEC = experiment: Direct binding of 125I-labeled plasminogen or angiostatin to endothelial cells, Scatchard analysis; design: species or system human; conditions: 125I-labeled ligand, 1 h at 4° C., read-out: apparent dissociation constant (Kd)
Method: FIGS. 1A and 1B. Direct binding assay and Scatchard analysis of plasminogen and angiostatin with endothelial cells. HUVEC were plated at a density of 10,000 cells/well and incubated with increasing concentrations of ^125I-labeled-plasminogen or angiostatin. FIG. 1A. ^125I-labeled plasminogen binding was concentration-dependent and saturable with an apparent dissociation constant ([…]) of 158 nM and 870,000 sites/cell. FIG. 1B. […] Error bars represent standard deviation.
Binding Assays. Ligands were radioiodinated by using Iodobeads (Pierce), repurified on L-lysine-Sepharose, eluted with 100 mM ε-aminocaproic acid, and dialyzed in PBS, pH 7.0 before use in binding assays. HUVEC were plated at a density of 5,000 or 10,000 cells/well and incubated with increasing concentrations of ^125I-labeled ligand in media containing 1% BSA for 1 h at 4° C. in 96-well plates. Wells were washed, and remaining bound radioactivity was quantified by using an LKB 1272 γ-radiation counter. Nonspecific binding was measured in the presence of excess unlabeled ligand.

[1] = biological target: T1, recombinant alpha subunit of human ATP synthase (Homo sapiens, UniProt P25705); experiment: Ligand blot binding to the recombinant alpha subunit of ATP synthase; conditions: ligand blot
T1 construct: His tag; made in house; host or cells: E. coli BL21DE3
Method: FIGS. 7A-7E. Angiostatin binding to the recombinant alpha subunit of human ATP synthase. The alpha subunit of human ATP synthase was cloned and expressed in E. coli and purified using Qiagen's nickel-Sepharose protein purification system before dialyzing in phosphate buffered saline (PBS), pH 7.0. Recombinant protein was electrophoresed on 5-15% SDS-PAGE, electroblotted onto Immobilon™ membrane and incubated 18 h in 10 mM Tris-HCl, 0.15M NaCl, 0.05% NP40, pH 7.5 (TSN) containing ^125I-angiostatin. For competition studies, unlabeled ligand was added 4 h prior to radiolabeled ligand. Blots were washed in TSN buffer containing 0.05% Tween80 and bound radioactivity was quantified on a Molecular Dynamics PhosphorImager™.
Purification of the alpha-Subunit of ATP Synthase. Competent E. coli BL21DE3 were transformed with the pET24a(+) vector containing the alpha subunit, plated on 2× Bacto-yeast tryptone (YT) agarose, and grown overnight at 37° C. Twenty milliliters of 2× YT containing […] kanamycin was inoculated with one colony and grown overnight at 37° C. (200 rpm). A 1-liter culture (2× YT, […] kanamycin) was inoculated with 20 ml of the noninduced overnight culture and grown at 37° C. to an OD of 0.6 at a wavelength of 600 nm. Isopropyl […] was added to a final concentration of 1 mM and grown for an additional 3 h. Cells were harvested by centrifugation at 8,000 rpm for 10 min and stored overnight at −20° C. Lysates were prepared under denaturing conditions and batch-purified by using Qiagen Ni-NTA agarose. Resulting protein was dialyzed against PBS, pH 7.0 for use in all experiments.

[2] = biological target: T2, purified bovine F1 ATP synthase (Bos taurus, UniProt P00829+P19483); experiment: F1 activity assay (ATPase, coupled NADH oxidation at 340 nm); type: biochemical; conditions: angiostatin
T2 construct: from tissue; host or cells: bovine heart mitochondria
Method: FIG. 12 is a bar graph showing the inhibition of purified F1 ATP synthase by angiostatin. Purified F1 ATP synthase activity was measured spectrophotometrically at λ=340 nm by coupling the production of ADP to the oxidation of NADH via the pyruvate kinase and lactate dehydrogenase reaction in which a decrease in the absorbance at λ=340 nm indicates active protein (dark six membered rings). […] Control antibodies had no effect on activity (light circles and squares). Representative data shown, n=3.
Purification of Bovine Heart F1 ATP Synthase and F1 Activity Assay. Fresh bovine heart mitochondria were obtained as previously described (23) and sonicated to yield sub-mitochondrial particles (24). The F1 portion was separated from membrane-bound FO by chloroform extraction. The aqueous layer was centrifuged at 105,000×g to remove particulate matter before purifying over an S300 gel filtration column. […] ATPase activity was measured spectrophotometrically by monitoring at λ=340 nm by coupling the production of ADP to the oxidation of NADH via pyruvate kinase and lactate dehydrogenase reactions as described in Zheng,& Ramirez, Biochem Biophys Res Commun 261(25):499-503 (1999).

[3] = biological target: T3, ATP synthase on the surface of HUVEC (Homo sapiens, UniProt P05496+P06576+P25705); experiment: Cell-surface ATP generation by bioluminescent luciferase assay; type: cell-based
T3 construct: endogenous in cells; host or cells: HUVEC (primary human umbilical vein endothelial cells)
Method: Cell-surface ATP Assay. […] Cells were treated with (1 μM) angiostatin or (0.1 mg/mL) oligomycin for 1 hr at 37° C. All cells were then incubated with 0.1 Ci ^32P and 0.1 Ci ([…]) [2,8-^3H]-ADP (NEN Life Sciences) for 1 min. Supernatants were removed and centrifuged before assaying for ATP production by thin layer chromatography (TLC) or by firefly luciferase assay. ATP Generation by Bioluminescent Luciferase Assay. […] Louis, Mo.). In this firefly luciferin-luciferase reaction, only ATP is readily detected since the enzymatic reaction of firefly luciferase to oxidize luciferin is specific for ATP relative to all other nucleotides. Samples were injected with the ATP assay mixture and recordings were made in a LuminoskanRS (LabSystems, Franklin, Mass.) over a 10 s period. The response in a given sample or standard was quantified as area under the peak of the response and averaged for duplicate determinations. Data are expressed as picomoles of ATP produced per cell based on standards determined under the same conditions with each experiment. Angiostatin was prepared as described in Sottrup-Jensen, […]., Petersen, T. E. & Magnusson, S. (1978) Progress in Chemical Fibrinolysis and Thrombolysis (Raven Press, New York).

binding of 125I-labeled ligand to recombinant alpha subunit [1]: bound
inhibition of purified F1 ATPase activity [2]: completely inhibited
Percent Inhibition (+/− S.E.M.) of ATP generation ([3]; 1 μM, 50 μM ADP): 81%
inhibition of ATP generation with increasing concentrations ([3]; increasing concentrations of angiostatin): dose-dependent manner
Substance: angiostatin
Kd (HUVEC): 245 nM
